The text below walks through data of patent US11952364B2, “TRK inhibitors useful as anticancer drugs” (TYLIGAND BIOSCIENCE (SHANGHAI) LIMITED, priority 2018, dated 2024).

This test deals with Ba/F3 ETV6-NTRK3-G696C cells. Nature of the test: Proliferation of Ba/F3 ETV6-NTRK3-G696C cells (CellTiter-Glo). It counts as cell-based, mouse. As to conditions: Mus musculus. From the text: Ba/F3 ETV6-NTRK3-G696C is a stable transgenic cell line constructed by KYinno Biotechnology Co., Ltd. on mouse primary B cell Ba/F3 wherein NTRK3 is highly expressed with a mutation of G at position […] to C and fused with ETV6 to form ETV6-NTRK3. • [Test method]: Promega's CellTiter-Glo® Luminescent Cell Viability Assay kit was used to evaluate the inhibitory activity of the compounds on the proliferation of Ba/F3 ETV6-NTRK3-G696C cells. • [Instrument]: Spectramax M3 multifunctional microplate reader from Molecular Devices. • [Test materials]: Ba/F3 ETV6-NTRK3-G696C cell line (constructed by KYinno Biotechnology Co., Ltd. (Beijing)), 96-well transparent flat-bottomed black-walled cell culture plate (Corning, cat #3603), RPMI-1640 media (GE, product number #SH30027.01), fetal bovine serum FBS (Thermo Fisher, cat #10099-141), CellTiter-Glo® Luminescent Cell Viability Assay kit (Promega, cat #G7572), PBS (Solarbio, cat #P1020), DMSO (Sigma, cat #D2650). • [Experimental procedure]: When resuscitating Ba/F3 ETV6-NTRK3-G696C cells, • the freezing tube was quickly shaken in a 37° C. water bath to melt within 1 minute. The thawed cell suspension was mixed uniformly with RPMI1640 medium containing 10% FBS, centrifuged at 1000 rpm for 5 minutes, and the supernatant discarded. 5 mL of complete medium (RPMI1640 medium with 10% FBS) was taken to resuspend the cell pellets, charged into a cell culture flask with a bottom area of 25 cm^2, and incubated in a cell incubator at 37° C., 95% humidity and 5% CO2. Cells were allowed to passage when the number of cells reached about 10^6 cells/mL. For cell passage, the old cell suspension was directly pipetted evenly, 1/5 of the cell suspension was kept, 4 mL of new complete medium was added, after pipetting evenly, the cell flask was placed in the cell incubator for further culturing. Cell plating was performed when the number of cells reached about 10^6 cells/mL again. For cell plating, 1/5 of the cell suspension was kept for further culturing as in the cell passage method, and the remaining 4/5 of the cell suspension was placed in a 15 mL centrifuge tube, detected for cell viability by Trypan blue exclusion method to ensure that cell viability was above 90%. A cell suspension with a density of 5.56×10^4 viable cells/mL was prepared with complete medium, and 90 μL of such cell suspension was added to a 96-well cell culture plate to obtain the cell density of 5000 viable cells/mL in the cell culture plate. A control group containing no cells, no compound and only complete medium (i.e. culture medium control) and a control group containing no compound but containing cells (i.e. cell control) were set. The cell plate was placed in a cell incubator overnight. The 10 mM compound stock solution in DMSO was first serially diluted with DMSO at a dilution factor of 3.16 times, to obtain 9 concentrations, and the 10th concentration was set as DMSO control without compound. Then, PBS was used to dilute the DMSO solutions of compounds of different concentrations, at a dilution factor of 100 times, so that the DMSO concentration in the compound solution of each concentration was 1%. Finally, 10 μL of each of the above solutions was added to the corresponding cell culture plate, so that the initial compound concentration was 10 μM, with the remaining concentrations being successively diluted at a dilution factor of 3.16 times, and the DMSO content in the cell culture plate was 0.1%. The cell plate was placed in a cell incubator and cultured for 72 hours. For endpoint detection, the CellTiter-Glo reagent was melted, and the cell plate was moved to room temperature to equilibrate for 30 minutes, added with 100 μL of CellTiter-Glo for each well, and shaken on an orbital shaker for 5 minutes to fully lyse the cells. […]

Setting [1] is: BaF3, Table 9, read-out: Ba/F3 ETV6-NTRK3-G696C cell proliferation inhibitory activity (IC50).
[2] abbreviates: BaF3, 72 h, Table 7, 72 hours, read-out: Ba/F3 ETV6-NTRK3-G696C, IC50.

Like-named read-outs stand apart in the source and are kept apart here.

As to `CCOc1ccc(C(=O)Nc2ccc(Oc3cc4cnn5c4c(c3-c3cn[nH]c3)CC5)c(F)c2)c(=O)n1-c1ccc(F)cc1` [Example 32, N-(4-((5-(1H-pyrazol-4-yl)-6,7-dihydropyrrolo[3,2,1-hi]-indazol-4-yl)oxy)-3-fluorophenyl)-6-ethoxy-1-(4-fluorophenyl)-2-oxo-12-dihydropyridine-3-carboxamide], the IC50 under setting [1] was 4.7 nM.

As for `CC(C)Oc1ccc(C(=O)Nc2ccc(Oc3cc4cnn5c4c(c3-c3cn[nH]c3)CC5)c(F)c2)c(=O)n1-c1ccc(F)cc1` [Example 34, N-(4-((5-(1H-pyrazol-4-yl)-6,7-dihydropyrrolo[3,2,1-hi]-indazol-4-yl)oxy)-3-fluorophenyl)-1-(4-fluorophenyl)-6-isopropoxy-2-oxo-12-dihydropyrndine-3-carboxamide], under setting [1], the IC50 was 4.8 nM.

In the case of `O=C(Nc1cnn2ccc(N3CCC[C@@H]3c3cc(F)ccc3F)nc12)N1CC[C@H](O)C1` [LOXO-101, Larotrectinib, reference compound], under setting [2], the IC50 was determined as 1890 nM.

For `Cc1ccc(C(=O)Nc2ccc(Oc3cc4cnn(C)c4cc3-c3cn[nH]c3)c(F)c2)c(=O)n1-c1ccc(F)cc1` [Merestinib, reference compound], the IC50 under setting [2] came to 10 nM; the IC50 (BaF3, Table 7-1, separate test, read-out: Ba/F3 ETV6-NTRK3-G696C, IC50) was 13 nM; the IC50 (BaF3, Table 7-2, separate test, read-out: Ba/F3 ETV6-NTRK3-G696C, IC50) turned out to be 1.7 nM.
